Source: paper PMC8078842 (PLoS Neglected Tropical Diseases, 2021)
“And” between values parts separate entries of the source, which are not always exact repeats. Equal values may be shown once.

Experiment: In situ brain/choroid plexus perfusion (10 or 30 minutes) with capillary depletion
Settings: for RTISSUE/PLASMA% (mean±SEM) Caudate putamen / RTISSUE/PLASMA% (mean±SEM) Cerebellum / RTISSUE/PLASMA% (mean±SEM) Choroid plexus / RTISSUE/PLASMA% (mean±SEM) Corpus callosum / RTISSUE/PLASMA% (mean±SEM) Frontal cortex / RTISSUE/PLASMA% (mean±SEM) Hippocampus / RTISSUE/PLASMA% (mean±SEM) Homogenate / RTISSUE/PLASMA% (mean±SEM) Hypothalamus / RTISSUE/PLASMA% (mean±SEM) Occipital cortex / RTISSUE/PLASMA% (mean±SEM) Pellet / RTISSUE/PLASMA% (mean±SEM) Pineal gland / RTISSUE/PLASMA% (mean±SEM) Pituitary gland / RTISSUE/PLASMA% (mean±SEM) Pons / RTISSUE/PLASMA% (mean±SEM) Supernatant / RTISSUE/PLASMA% (mean±SEM) Thalamus / RTISSUE/PLASMA% (mean ± SEM) of [^3H]pentamidine: not corrected for vascular space; for RTISSUE/PLASMA% (mean ± SEM) of [^3H]pentamidine: 30 min perfusion
[1] = 15.7 nM, 10 minutes perfusion, corrected for vascular space
[2] = 15.7 nM, 10 minutes perfusion, corrected for vascular space, listed as [^3H]pentamidine
[3] = 10 minutes perfusion, listed as Control A [^3H]pentamidine
[4] = 10 minutes perfusion, listed as Control B [^3H]pentamidine

## [^3H(G)]pentamidine
[1]
  RCORR TISSUE% caudate putamen: 4.02 (± 1.03) %
  RCORR TISSUE% cerebellum: 3.82 (± 0.64) %
  RCORR TISSUE% choroid plexus: 490.9 (± 103.1) %
  RCORR TISSUE% corpus callosum: 6.73 (± 2.65) %
  RCORR TISSUE% frontal cortex: 4.29 (± 0.93) %
  RCORR TISSUE% hippocampus: 4.37 (± 0.97) %
  RCORR TISSUE% homogenate: 4.61 (± 0.94) %
  RCORR TISSUE% hypothalamus: 5.56 (± 1.58) %
  RCORR TISSUE% occipital cortex: 4.03 (± 0.98) %
  RCORR TISSUE% pellet: 12.54 (± 1.74) %
  RCORR TISSUE% pineal gland: 284.7 (± 81.4) %
  RCORR TISSUE% pons: 7.16 (± 1.75) %
  RCORR TISSUE% supernatant: less than 2%
  RCORR TISSUE% thalamus: 4.76 (± 0.91) %
[2]
  RCORR TISSUE% pituitary gland: 182.75(± 29.6) % and 182.75(± 37.5) %
  RCORR TISSUE% supernatant: 1.99 (± 0.45) %
[3]
  RTISSUE/PLASMA% (mean±SEM) Caudate putamen: 4.08 (± 0.84) %
  RTISSUE/PLASMA% (mean±SEM) Cerebellum: 5.28 (± 0.56) %
  RTISSUE/PLASMA% (mean±SEM) Choroid plexus: 385.74 (± 24.35) %
  RTISSUE/PLASMA% (mean±SEM) Corpus callosum: 5.32 (± 1.47) %
  RTISSUE/PLASMA% (mean±SEM) Frontal cortex: 4.88 (± 1.18) %
  RTISSUE/PLASMA% (mean±SEM) Hippocampus: 3.48 (± 0.94) %
  RTISSUE/PLASMA% (mean±SEM) Homogenate: 4.03 (± 0.78) %
  RTISSUE/PLASMA% (mean±SEM) Hypothalamus: 5.96 (± 1.23) %
  RTISSUE/PLASMA% (mean±SEM) Occipital cortex: 4.56 (±0.87) %
  RTISSUE/PLASMA% (mean±SEM) Pellet: 4.11 (± 1.24) %
  RTISSUE/PLASMA% (mean±SEM) Pineal gland: 367.59 (± 39.97) %
  RTISSUE/PLASMA% (mean±SEM) Pituitary gland: 251.21 (± 66.80) %
  RTISSUE/PLASMA% (mean±SEM) Pons: 7.81 (± 0.90) %
  RTISSUE/PLASMA% (mean±SEM) Supernatant: 2.54 (± 0.39) %
  RTISSUE/PLASMA% (mean±SEM) Thalamus: 4.34 (± 0.83) %
[4]
  RTISSUE/PLASMA% (mean±SEM) Caudate putamen: 5.40 (± 1.00) %
  RTISSUE/PLASMA% (mean±SEM) Cerebellum: 6.54 (± 0.70) %
  RTISSUE/PLASMA% (mean±SEM) Choroid plexus: 535.95 (± 107.86) %
  RTISSUE/PLASMA% (mean±SEM) Corpus callosum: 9.17 (± 2.67) %
  RTISSUE/PLASMA% (mean±SEM) Frontal cortex: 6.23 (± 0.92) %
  RTISSUE/PLASMA% (mean±SEM) Hippocampus: 5.60 (± 1.43) %
  RTISSUE/PLASMA% (mean±SEM) Homogenate: 6.20 (± 0.97) %
  RTISSUE/PLASMA% (mean±SEM) Hypothalamus: 8.14 (± 1.75) %
  RTISSUE/PLASMA% (mean±SEM) Occipital cortex: 5.67 (± 0.99) %
  RTISSUE/PLASMA% (mean±SEM) Pellet: 13.19 (± 1.79) %
  RTISSUE/PLASMA% (mean±SEM) Pineal gland: 361.76 (± 79.03) %
  RTISSUE/PLASMA% (mean±SEM) Pituitary gland: 203.27(± 32.85) %
  RTISSUE/PLASMA% (mean±SEM) Pons: 10.72 (± 1.82) %
  RTISSUE/PLASMA% (mean±SEM) Supernatant: 3.00 (± 0.43) %
  RTISSUE/PLASMA% (mean±SEM) Thalamus: 5.95 (± 0.92) %
30 minutes of perfusion
  Accumulation corrected for vascular space, hippocampus: 6.9%
  Accumulation corrected for vascular space, hypothalamus: 15%
  Accumulation corrected for vascular space, pons: 10.9%
Caudate putamen, 0.01% F68 + 15.7 nM pent
  RTISSUE/PLASMA% (mean ± SEM) of [^3H]pentamidine: 6.90 (± 1.58) %
Caudate putamen, 0.1% F68 + 15.7 nM pent
  RTISSUE/PLASMA% (mean ± SEM) of [^3H]pentamidine: 10.41 (± 1.18) %
Caudate putamen, 0.5% F68 + 15.7 nM pent
  RTISSUE/PLASMA% (mean ± SEM) of [^3H]pentamidine: 13.07 (± 3.45) %
Caudate putamen, Control (15.7 nM pent)
  RTISSUE/PLASMA% (mean ± SEM) of [^3H]pentamidine: 8.65 (± 0.28) %
Cerebellum, 0.01% F68 + 15.7 nM pent
  RTISSUE/PLASMA% (mean ± SEM) of [^3H]pentamidine: 9.38 (± 2.47) %
